# Source: US7009052B2, “Sulfonamide derivatives” (Warner Lambert Company LLC, priority 2003, dated 2006)
# Biological target: T1, androgen receptor (Homo sapiens, UniProt P10275)
# T1 sequence (P10275 1-920 Q868H): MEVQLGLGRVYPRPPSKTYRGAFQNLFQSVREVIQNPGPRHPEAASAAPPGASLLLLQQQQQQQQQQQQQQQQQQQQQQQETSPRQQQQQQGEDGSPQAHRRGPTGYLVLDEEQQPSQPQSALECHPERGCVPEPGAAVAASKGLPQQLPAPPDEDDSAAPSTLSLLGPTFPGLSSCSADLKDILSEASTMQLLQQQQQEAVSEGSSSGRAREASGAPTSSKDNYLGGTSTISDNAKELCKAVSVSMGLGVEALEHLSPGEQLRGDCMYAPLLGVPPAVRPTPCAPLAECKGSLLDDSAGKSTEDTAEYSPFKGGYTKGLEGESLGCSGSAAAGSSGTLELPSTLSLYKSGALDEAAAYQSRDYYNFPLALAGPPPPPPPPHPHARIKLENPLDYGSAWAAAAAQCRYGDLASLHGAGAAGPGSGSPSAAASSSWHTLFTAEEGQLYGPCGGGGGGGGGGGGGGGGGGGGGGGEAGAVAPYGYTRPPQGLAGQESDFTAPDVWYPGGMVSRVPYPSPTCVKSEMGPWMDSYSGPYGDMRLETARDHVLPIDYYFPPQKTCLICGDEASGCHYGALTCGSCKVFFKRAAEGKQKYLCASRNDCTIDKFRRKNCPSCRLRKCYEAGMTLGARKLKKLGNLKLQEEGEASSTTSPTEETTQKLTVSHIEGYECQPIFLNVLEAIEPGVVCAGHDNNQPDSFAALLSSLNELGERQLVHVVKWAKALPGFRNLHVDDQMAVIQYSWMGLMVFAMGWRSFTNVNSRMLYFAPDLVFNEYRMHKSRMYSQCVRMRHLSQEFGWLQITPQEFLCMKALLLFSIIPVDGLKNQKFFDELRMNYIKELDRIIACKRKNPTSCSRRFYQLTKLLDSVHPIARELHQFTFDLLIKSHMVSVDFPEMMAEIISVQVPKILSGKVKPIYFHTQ
# Experiment: AR Antagonist Cell Assay (MMTV-luciferase reporter, DHT-induced)
# Format: cell-based
# Details: MDA-MB453-MMTV clone 54-19 cells, 100 pM DHT, 17 hr
# In short: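 Stably transfected MDA-MB453 cells carrying an ARE-containing MMTV promoter–firefly luciferase reporter, pretreated 30 min with compound at 10 uM or 1 uM in 1% charcoal-treated serum medium. Then stimulated with 100 pM DHT for 17 hr at 37° C. and luminescence read; expressed as % inhibition of DHT-induced signal.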
row,IC50 [µM],SMILES
1,> 10,"CC(O)c1cccc(NS(=O)(=O)c2ccc3[nH]c(=O)cc(C(F)(F)F)c3c2)c1 (centres unmarked) [Example 100, 2-Oxo-4-trifluoromethyl-1,2-dihydroquinoline-6-sulfonic acid[3-(1-hydroxyethyl)phenyl]amide]"
2,> 10,"COc1cc(CNS(=O)(=O)c2ccc3[nH]c(=O)cc(C(F)(F)F)c3c2)cc(OC)c1 [Example 149, 2-Oxo-4-trifluoromethyl-1,2-dihydroquinoline-6-sulfonic acid3,5-dimethoxybenzylamide]"
3,8.13,"O=c1cc(C(F)(F)F)c2cc(S(=O)(=O)Nc3ccccc3Sc3ccccc3)ccc2[nH]1 [Example 115, 2-Oxo-4-trifluoromethyl-1,2-dihydroquinoline-6-sulfonic acid(2-phenylsulfanylphenyl)amide]"
4,> 10,"Cn1nc(C(C)(C)C)cc1NS(=O)(=O)c1ccc2[nH]c(=O)cc(C(F)(F)F)c2c1 [Example 104, 2-Oxo-4-trifluoromethyl-1,2-dihydroquinoline-6-sulfonic acid(5-tert-butyl-2-methyl-2H-pyrazol-3-yl)amide]"
5,> 10,"CN(c1ccccc1)S(=O)(=O)c1ccc2c(c1)c(C(F)(F)F)cc(=O)n2C [Example 12, 1-Methyl-2-oxo-4-trifluoromethyl-1,2-dihydroquinoline-6-sulfonicacid methylphenylamide]"
6,0.2,"CC(C)c1ccc(NS(=O)(=O)c2ccc3[nH]c(=O)cc(C(F)(F)F)c3c2)cc1 [Example 97, 2-Oxo-4-trifluoromethyl-1,2-dihydroquinoline-6-sulfonic acid(4-isopropylphenyl)amide]"
7,> 10,"Cn1c(=O)cc(C(F)(F)F)c2cc(S(=O)(=O)N(Cc3ccccc3)Cc3ccccc3)ccc21 [Example 9, 1-Methyl-2-oxo-4-trifluoromethyl-1,2-dihydroquinoline-6-sulfonicacid dibenzylamide]"
8,3.86,"Cn1c(=O)cc(C(F)(F)F)c2cc(S(=O)(=O)Nc3cccc(OC(F)(F)F)c3)ccc21 [Example 41, 1-Methyl-2-oxo-4-trifluoromethyl-1,2-dihydroquinoline-6-sulfonicacid (3-trifluoromethoxy-phenyl)amide]"
9,0.93,"Cn1c(=O)cc(C(F)(F)F)c2cc(S(=O)(=O)Nc3cccc(C(F)(F)F)c3)ccc21 [Example 39, 1-Methyl-2-oxo-4-trifluoromethyl-1,2-dihydroquinoline-6-sulfonicacid (3-trifluoromethylphenyl)-amide]"
10,3.46,"O=c1cc(C(F)(F)F)c2cc(S(=O)(=O)Nc3ccc4ncccc4c3)ccc2[nH]1 [Example 93, 2-Oxo-4-trifluoromethyl-1,2-dihydroquinoline-6-sulfonic acidquinolin-6-ylamide]"
11,> 10,"Cn1c(=O)cc(C(F)(F)F)c2cc(S(=O)(=O)NCCC(C)(C)C)ccc21 [Example 49, 1-Methyl-2-oxo-4-trifluoromethyl-1,2-dihydroquinoline-6-sulfonicacid (3,3-dimethylbutyl)amide]"
12,> 10,"O=c1cc(C(F)(F)F)c2cc(S(=O)(=O)Nc3ccc(F)cc3F)ccc2[nH]1 [Example 94, 2-Oxo-4-trifluoromethyl-1,2-dihydroquinoline-6-sulfonic acid(2,4-difluorophenyl)amide]"
13,2.16,"O=c1cc(C(F)(F)F)c2cc(S(=O)(=O)NCc3ccccc3Br)ccc2[nH]1 [Example 156, 2-Oxo-4-trifluoromethyl-1,2-dihydroquinoline-6-sulfonic acid2-bromobenzylamide]"
14,2.39,"O=c1cc(C(F)(F)F)c2cc(S(=O)(=O)NCc3c(F)cccc3Cl)ccc2[nH]1 [Example 142, 2-Oxo-4-trifluoromethyl-1,2-dihydroquinoline-6-sulfonic acid2-chloro-6-fluorobenzylamide]"
15,0.87,"CCc1ccc(NS(=O)(=O)c2ccc3c(c2)c(C(F)(F)F)cc(=O)n3C)cc1 [Example 17, 1-Methyl-2-oxo-4-trifluoromethyl-1,2-dihydroquinoline-6-sulfonicacid (4-ethylphenyl)amide]"
16,> 10,"O=c1cc(C(F)(F)F)c2cc(S(=O)(=O)NCc3cccs3)ccc2[nH]1 [Example 118, 2-Oxo-4-trifluoromethyl-1,2-dihydroquinoline-6-sulfonic acid(thiophen-2-ylmethyl)amide]"

row,IC50 [µM],SMILES
1,6.1,"CC(C)Oc1cccc(NS(=O)(=O)c2ccc3c(c2)c(C(F)(F)F)cc(=O)n3C)c1 [Example 37, 1-Methyl-2-oxo-4-trifluoromethyl-1,2-dihydroquinoline-6-sulfonicacid (3-isopropoxyphenyl)-amide]"
2,> 10,"CN1CCCC1CCNS(=O)(=O)c1ccc2[nH]c(=O)cc(C(F)(F)F)c2c1 (centres unmarked) [Example 134, 2-Oxo-4-trifluoromethyl-1,2-dihydroquinoline-6-sulfonic acid[2-(1-methylpyrrolidin-2-yl)ethyl]amide]"
3,> 10,"COc1ccccc1NS(=O)(=O)c1ccc2c(c1)c(C(F)(F)F)cc(=O)n2C [Example 20, 1-Methyl-2-oxo-4-trifluoromethyl-1,2-dihydroquinoline-6-sulfonicacid (2-methoxyphenyl)amide]"
4,6.54,"O=c1cc(C(F)(F)F)c2cc(S(=O)(=O)NCc3cc(Cl)ccc3F)ccc2[nH]1 [Example 146, 2-Oxo-4-trifluoromethyl-1,2-dihydroquinoline-6-sulfonic acid5-chloro-2-fluorobenzylamide]"
5,7.86,"COc1ccc(OC)c(NS(=O)(=O)c2ccc3[nH]c(=O)cc(C(F)(F)F)c3c2)c1 [Example 102, 2-Oxo-4-trifluoromethyl-1,2-dihydroquinoline-6-sulfonic acid(2,5-dimethoxyphenyl)amide]"
6,3.92,"Cn1c(=O)cc(C(F)(F)F)c2cc(S(=O)(=O)NCc3ccccc3C(F)(F)F)ccc21 [Example 62, 1-Methyl-2-oxo-4-trifluoromethyl-1,2-dihydroquinoline-6-sulfonicacid 2-trifluoromethyl-benzylamide]"
7,> 10,"CC(O)c1cccc(NS(=O)(=O)c2ccc3c(c2)c(C(F)(F)F)cc(=O)n3C)c1 (centres unmarked) [Example 28, 1-Methyl-2-oxo-4-trifluoromethyl-1,2-dihydro-quinoline-6-sulfonic acid [3-(1-hydroxyethyl)phenyl]-amide]"
8,> 10,"O=c1cc(C(F)(F)F)c2cc(S(=O)(=O)NCCc3c[nH]c4ccccc34)ccc2o1 [Example 67, 2-Oxo-4-trifluoromethyl-2H-chromene-6-sulfonic acid [2-(1H-indol-3-yl)ethyl]amide]"
9,4.69,"COCCNS(=O)(=O)c1ccc2[nH]c(=O)cc(C(F)(F)F)c2c1 [Example 119, 2-Oxo-4-trifluoromethyl-1,2-dihydroquinoline-6-sulfonic acid(2-methoxyethyl)amide]"
10,1.14,"Cc1ccc(NS(=O)(=O)c2ccc3[nH]c(=O)cc(C(F)(F)F)c3c2)cc1 [Example 83, 2-Oxo-4-trifluoromethyl-1,2-dihydroquinoline-6-sulfonic acidp-tolylamide]"
11,4.47,"Cn1c(=O)cc(C(F)(F)F)c2cc(S(=O)(=O)Nc3ccc4c(c3)CCC4)ccc21 [Example 22, 1-Methyl-2-oxo-4-trifluoromethyl-1,2-dihydroquinoline-6-sulfonicacid indan-5-ylamide]"
12,> 10,"Cc1cc(=O)oc2cc(NS(=O)(=O)c3ccc4[nH]c(=O)cc(C(F)(F)F)c4c3)ccc12 [Example 111, 2-Oxo-4-trifluoromethyl-1,2-dihydroquinoline-6-sulfonic acid(4-methyl-2-oxo-2H-chromen-7-yl)amide]"
13,0.36,"CCc1ccc(NS(=O)(=O)c2ccc3[nH]c(=O)cc(C(F)(F)F)c3c2)cc1 [Example 89, 2-Oxo-4-trifluoromethyl-1,2-dihydroquinoline-6-sulfonic acid(4-ethylphenyl)amide]"
14,10.6,"CCCCN(CC)S(=O)(=O)c1ccc2c(c1)c(C(F)(F)F)cc(=O)n2C [Example 4, 1-Methyl-2-oxo-4-trifluoromethyl-1,2-dihydroquinoline-6-sulfonicacid butylethylamide]"
15,> 10,"COc1ccc(N(Cc2ccccc2)S(=O)(=O)c2ccc3c(c2)c(C(F)(F)F)cc(=O)n3C)cc1 [Example 46, 1-Methyl-2-oxo-4-trifluoromethyl-1,2-dihydroquinoline-6-sulfonicacid benzyl(4-methoxy-phenyl)amide]"

row,SMILES,IC50 [µM]
1,"O=c1cc(C(F)(F)F)c2cc(S(=O)(=O)NCCc3c[nH]c4ccccc34)ccc2[nH]1 [Example 147, 2-Oxo-4-trifluoromethyl-1,2-dihydroquinoline-6-sulfonic acid[2-(1H-indol-3-yl)ethyl]amide]",0.26
